Data on one compound can be found in article PMC5698418 (Nature Communications, 2017).

One assay relates to Arc protein. Description: Western blot of total Arc protein in primary cortical neurons. In kind it is cell-based, mouse. Conditions: CGP 57380 5 µM co-treated 6 h with BDNF. On the technique in general: Immunoblotting shows a protein as a band on a membrane.
A further assay has as its system eIF4E phosphorylation. Kind of assay: Western blot of phospho-eIF4E in primary cortical neurons. In kind it is cell-based, mouse. Conditions: CGP 57380 5 µM co-treated 6 h with BDNF. The method, then:
For western blot analyses, cells were collected by scraping in ice-cold radioimmunoprecipitation assay (RIPA) buffer (50 mM Tris-HCl (pH 8.0), 300 mM NaCl, 0.5% Igepal-630, 0.5% deoxycholic acid, 0.1% SDS, 1 mM EDTA) supplemented with a cocktail of protease inhibitors (Complete Protease Inhibitor without EDTA, Roche Applied Science, Indianapolis, IN) and phosphatase inhibitors (phosphatase inhibitor cocktail A, Santa Cruz Biotechnology). One volume of 2× Laemmli buffer (100 mM Tris-HCl (pH 6.8), 4% SDS, 0.15% bromophenol blue, 20% glycerol, 200 mM β-mercaptoethanol) was added and the extracts were boiled for 5 min. Samples were adjusted to an equal concentration after protein concentrations were determined using the BCA assay (Pierce, Thermo Fisher Scientific). Lysates were separated using SDS–PAGE and transferred to a nitrocellulose membrane. After transfer, the membrane was blocked in TBST (Tris-buffered saline + 0.1% Tween 20) supplemented with 5% nonfat powdered milk and probed with the indicated primary antibody at 4 °C overnight. After washing with TBST, the membrane was incubated with the appropriate secondary antibody and visualized using enhanced chemiluminescence (ECL) reagents according to the manufacturer’s guidelines (Pierce, Thermo Fisher Scientific). Uncropped scans with molecular weight reference are shown in Supplementary Figs. 10–20.

Procedure for Arc protein: Forebrains of E16.5 C57BL/6 mouse embryos were dissected and then dissociated in trypsin solution for 15 min followed by three washes with phosphate-buffered saline (PBS). Single-cell suspension was achieved by gentle pipet trituration. Neurons were seeded in poly-L-lysine/laminin-coated six-well plates at a density of 2 × 10^6 per well and maintained in neurobasal medium containing B27 supplement (2%, Invitrogen, Grand Island, NY), penicillin (50 units ml^−1, Invitrogen), streptomycin (50 µg ml^−1, Invitrogen), and glutamine (1 mM, Sigma). For experiments involving BDNF (EMD Millipore Corps, Billerica, MA), the stock solution (2 ng µl^−1 in water) was added directly to the culture medium at a final concentration of 100 ng ml^−1 for the indicated period of time.
The following procedure was used to quantify western blots. First, equal quantity of protein lysate was analyzed by SDS–PAGE for each biological replicate. Second, the exposure time of the film to the ECL chemiluminescence was the same for each biological replicate. Third, all the exposed films were scanned on a Brother MFC-J485DW scanner in grayscale at a resolution of 300 dpi. Fourth, the look-up table (LUT) of the scanned tiff images was inverted and the intensity of each band was individually measured using the selection tool and the histogram function in Adobe Photoshop CC 2015 software. […]

`Nc1ncnc2n[nH]c(Nc3ccc(F)cc3)c12` [CGP 57380]: in the assay on Arc protein, the “effect on BDNF-induced Arc expression (western blot)” value is “did not prevent Arc expression”. Further, in the assay with eIF4E phosphorylation, the “effect on eIF4E phosphorylation” value was “impacting eukaryotic translation initiation factor 4E (eIF4E) phosphorylation”.
